From US6020316A, “Glutaraldehyde modified chemotherapeutic agents and methods of use thereof” (priority 1998, dated 2000) come the findings set out here.

The subject of one assay is tumor cell. The assay is described as follows: Antitumor cell activity of DOX modified with other aldehydes and crosslinking agents. Format: cell-based. The conditions noted are these: substituted for glutaraldehyde in the basic modification protocol. The procedure:
Other aldehydes and crosslinking agents that were substituted for glutaraldehyde in the basic modification protocol included acetaldehyde, butyraldehyde, hexanal, formaldehyde, succinyl chloride, glutaryl dichloride (all from Aldrich Chemical Co., Milwaukee, Wis.), DSG (disuccinimidyl glutarate), DMS (dimethylsuberimidate), and BS^3 (last three compounds from Pierce Chemical Co., Rockford, Ill.).
(§1) Cells from the stock cultures were plated in 35 mm plastic tissue culture dishes at a density of 1×10^5 /cm^2. After 1 to 2 days, when the monolayer had reached a final density of 2-3×10^5 /cm^2, the cultures were washed twice with Dulbecco's phosphate-buffered saline and 2 ml of serum-free DMEM was added. […] After incubation for 3 hours at 37° C. in 10% CO2, the dishes were rinsed twice with phosphate-buffered saline (pH 7.4) to remove extracellular drugs, trypsinized, and plated for determination of clonogenic survival. Trypsinization involved dispersal of cells with 0.25% trypsin, followed by culture in DMEM plus 10% newborn calf serum for 7 days. Plates were examined after staining with methylene blue, and clones containing more than 10 cells were counted. The surviving fraction was the ratio of the plating efficiency of the cultures exposed to DOX divided by the plating efficiency of control cultures maintained in a medium of the same composition. Plating efficiency is defined as the number of colonies formed divided by the number of cells plated.

Assay [1] concerns MCF-7 (breast adenocarcinoma). The assay is described as follows: Clonogenic survival of human breast adenocarcinoma cells. The class given is cell-based. The conditions noted are these: FIG. 3B. The procedure: (§2) The murine L929 cell line, a human breast adenocarcinoma cell line (MCF-7) and a human bladder transitional cell carcinoma cell line (RT-4) were used to test the compounds of the present invention. All cell lines were obtained from MA Bioproducts (Bethesda, Md.) and were routinely maintained in high-glucose Dulbecco's Modified Eagle's Minimum Essential Medium (DMEM) and 10% newborn calf serum (L929) or 10% fetal calf serum (MCF-7 and RT-4). A DOX-resistant cell line, L929/DOX, was prepared by treating the L929 cell line with gradually increasing concentrations of DOX in vitro until a cell line that grew at a concentration of 50 μg/ml DOX was attained. A resistant subclone was then treated once with 100 μg/ml of DOX. The surviving resistant population was used in subsequent experiments. The L929/DOX cells were maintained in DMEM medium supplemented with 10% fetal calf serum and lacking DOX.
(§3) Cells from the stock cultures were plated in 35 mm plastic tissue culture dishes at a density of 1×10^5 /cm^2. After 1 to 2 days, when the monolayer had reached a final density of 2-3×10^5 /cm^2, the cultures were washed twice with Dulbecco's phosphate-buffered saline and 2 ml of serum-free DMEM was added. […] Plates were examined after staining with methylene blue, and clones containing more than 10 cells were counted. […]

A further assay has as its system L929 cells. The assay is described as follows: Fluorescence uptake and localization of DOX and GLU-DOX in L929 cells. The class given is cell-based, murine. The procedure: Cells were grown on 25 mm diameter microscope cover slips (Thomas, Sweedsboro, N.J.) in 35 mm tissue culture dishes. […] The wells were then rinsed two times with phosphate buffered saline and changed to fresh medium. After incubation for 0 h or 2 h, the cover slips were extracted from the plates, rinsed with PBS, mounted in an Attofluor cell chamber (Molecular Probes, Inc. Eugene, Oreg.), and examined by epifluorescence using a Zeiss microscope equipped with a 63× immersion oil objective. The combination of G546 excitation filer, FT580 dichroic mirror, and LP590 emission filter allowed efficient detection of doxorubicin fluorescence at 590 nm. The fluorescence was detected by a CCD72S camera (Dage-MTI, Inc, Michigan City, Ind.) and images were acquired and analyzed using OPTIMAS software (Optimas Corp., Seattle, Wash.). […] Area (A) per fluorescent image, i.e., per cell, and mean gray per image (MI) were measured for at least 20 cells. Mean gray for a background area containing no cell images (MB) was also determined. Fluorescence units (F.U.) per cell were calculated as: [formula]

In the next assay the test system is L929/DOX cells. The assay can be described thus: Drug efflux from L929/DOX cells versus wild type cells. The class given is cell-based, murine. From the text:
The surviving resistant population was used in subsequent experiments.

The subject of assay [2] is HTB (bladder transitional cell carcinoma). The assay is described as follows: Clonogenic survival of human bladder transitional cell carcinoma cells. The class given is cell-based. The following applies: FIG. 3A. Here is the method:
as §2, §3

A further assay deals with HLC (lung carcinoma). The assay can be described thus: Clonogenic survival of human lung carcinoma cells. The class given is cell-based. The conditions noted are these: FIG. 3C. Here is the method: as §1

On to `O=C(Cl)CCC(=O)Cl` [succinyl chloride], for which the “antitumor cell activity of the DOX reaction product relative to DOX” value in the assay with tumor cell is “None of these compounds, when reacted with DOX, produced a derivative with increased antitumor cell activity relative to DOX”.

Regarding butyraldehyde, the “antitumor cell activity of the DOX reaction product relative to DOX” value with tumor cell was “None of these compounds, when reacted with DOX, produced a derivative with increased antitumor cell activity relative to DOX”.

Turning to `CCCCCC=O` [hexanal], the “antitumor cell activity of the DOX reaction product relative to DOX” value with tumor cell was “None of these compounds, when reacted with DOX, produced a derivative with increased antitumor cell activity relative to DOX”.

On to formaldehyde, for which the “antitumor cell activity of the DOX reaction product relative to DOX” value in the assay with tumor cell is recorded as “None of these compounds, when reacted with DOX, produced a derivative with increased antitumor cell activity relative to DOX”.

`COc1cccc2c1C(=O)c1c(O)c3c(c(O)c1C2=O)C[C@@](O)(C(=O)CO)C[C@@H]3O[C@H]1C[C@H](N)[C@H](O)[C@H](C)O1` [DOX, doxorubicin]: the “sensitivity to DOX” value (in assay [1]; in assay [2]; in the assay on HLC (lung carcinoma)) was “relatively insensitive” in each case. In addition, the “Uptake: Mean Fluorescence Units per Cell” value in the assay with L929 cells (5 μg/ml, 3 h at 37° C.) is 124 ± 29 Fluorescence Units per Cell; in the assay with L929 cells (5 μg/ml, 3 h at 37° C. + 2 h chase), 18 ± 6 Fluorescence Units per Cell. In addition, the “fluorescence after chase in drug-free medium” value with L929 cells (2 hr chase, FIGS. 4B, 4D) is “nearly all DOX was lost from the cytoplasmic compartment although some nuclear fluorescence was still detectable”. Further, the “subcellular distribution of fluorescence” value with L929 cells (3 h exposure, 5 μg/ml, FIGS. 4A, 4C) is “in both nucleus and cytoplasm with distinct paranuclear concentration in some cells”. Moreover, in the assay with L929/DOX cells, the “drug efflux from L929/DOX relative to wild type cells” value is given as “pumped out of the L929/DOX cells much faster than out of the wild type cells”.

As for `COC(=O)c1ccccc1-c1c2ccc(=N)cc-2oc2cc(N)ccc12` [rhodamine 123], in the assay with L929 cells (2 h exposure, GLU-DOX (100:1) 5 μg/ml, rhodamine 123 10 μg/ml, FIGS. 5A, 5B), the “intracellular localization compared with rhodamine 123” value is listed as “strikingly similar”.

With acetaldehyde, the “antitumor cell activity of the DOX reaction product relative to DOX” value in the assay with tumor cell is “None of these compounds, when reacted with DOX, produced a derivative with increased antitumor cell activity relative to DOX”.

On to glutaryl dichloride, for which, in the assay with tumor cell, the “antitumor cell activity of the DOX reaction product relative to DOX” value is “None of these compounds, when reacted with DOX, produced a derivative with increased antitumor cell activity relative to DOX”.
